Assay results reported in US20210308101A1, “METHODS OF TREATING FIBROMYALGIA” (Aptinyx Inc., priority 2019, published 2021).

How the values were obtained:
[1] = system: subjects with fibromyalgia; assay: PROMISFM fatigue profile; assay type: in vivo, human
Text: As used herein, the “PROMISFM” fatigue profile is Patient Reported Outcomes Measurement Information System Fibromyalgia, which is a 16-question instrument which has four 4-item short forms that examines the intensity of the impact of fatigue in social, cognitive and motivation subdomains. All 16 questions are based on a 5-point numerical rating scale/Likert scale ranging from 1 to 5, with different categorical responses. Lower scores represent a better quality of life. The PROMISFM fatigue profile is made of the 4 following subdomains: • Experience Subdomain Score 3 Questions with Scores Ranging from 1 (Not at All) to 5 (Very Much): • How tired did you feel on average? • How fatigued were you on average? • How exhausted were you on average? 1 Question with Scores Ranging from 1 (None) to 5 (Very Severe): • What was the level of your fatigue on most days? • Sum of those 4 Questions make up the Experience Subdomain Score Ranging from 4 to 20 • Social Impact Subdomain Score 2 Questions with Scores Ranging from 1 (Not at All) to 5 (Very Much): • To what degree did your fatigue interfere with your social activities? • To what degree did your fatigue interfere with your ability to engage in recreational activities? 2 Questions with Scores Ranging from 1 (Never) to 5 (Always): • How often did you have to limit your social activities because of your fatigue? • How often were you too tired to socialize with your friends? • Sum of those 4 Questions make up the Social Impact Subdomain Score Ranging from 4 to 20 • Motivational Impact Subdomain Score 2 Questions with Scores Ranging from 1 (Not at All) to 5 (Very Much): • To what degree did you have trouble starting things because of your fatigue? • To what degree did you have trouble finishing things because of your fatigue? […] 2 Questions with Scores Ranging from 1 (Never) to 5 (Always): • How often were you too tired to think clearly? • How often did your fatigue make you more forgetful? • Sum of those 4 Questions make up the Cognitive Impact Subdomain Score Ranging from 4 to 20
If at least 2 questions were answered within an individual subdomain, that subdomain score was imputed if missing responses are present. Each subdomain score was multiplied by 4/(number of questions answered) and rounded off to the nearest whole number. Otherwise, that subdomain score was set to missing. The total score was calculated by taking the sum of those 4 subdomains and ranged from 16 to 80. If any of the subdomains were missing, the total score was set to missing. The PROMISFM fatigue profile assessment was collected and analyzed at visits Screening, Day 1, Week 2, Week 4, Week 6, and Follow-up (Week 7). The observed total and subdomain scores, changes from baseline, and changes from treatment periods were summarized using descriptive statistics. Additionally, the treatment group comparisons were analyzed using the paired t-test and nonparametric Wilcoxon signed-rank test. All PROMISFM fatigue profile data collected and the calculated total and subdomain scores at each visit were presented in a subject listing.

[2] = system: subjects with fibromyalgia; assay: QST: MAST pressure pain sensitivity at the thumbnail; assay type: in vivo, human
Text: The multi-modal automated sensory testing (MAST) system was used to measure localized pressure sensitivity at an asymptomatic, neutral body site, the thumbnail. The MAST system is a nonsignificant-risk investigational device that applies a computer-controlled mechanical stimulation at precisely controlled intensity levels and durations. The validity in the measurement of centrally-mediated pain sensitivity has been discussed extensively. The MAST system delivered an ascending series of computer-controlled, 5-second pressures at 20-second intervals (with 20% jitter) to the subject's thumbnail bed, beginning at 0.25 to 0.5 kg/cm^2 and increasing in steps of 0.25 to 0.50 kg/cm^2. Pain intensity was rated after each pressure on a 0 to 100 NRS. Testing was terminated when the first of 3 possible stop conditions were met: 1) subject reached her personal pain tolerance and requested to stop the test, 2) subject reported a pain intensity rating of >80, or 3) the maximum pressure of 10 kg/cm^2 was delivered. A regression model was used fit the stimulus-response data obtained from this procedure and interpolate Pain50, defined as the pressure intensity that evokes a moderate level of suprathreshold pressure pain (i.e., 50/100). Additional derived variables included: 1) Pressure pain threshold, defined as the first pressure in a series of at least 2 consecutive pressures that elicited a NRS pain rating >0; 2) slope of the stimulus-response function as a measure of the rate of pain increase; and 3) pressure pain tolerance, defined as the last pressure recorded in the stimulus response profile. These variables were used to determine the effect of drug and placebo treatments on pain sensitivity.
QST data were analyzed at the University of Michigan CPFRC. Dependent variables were the MAST derived outcomes (Pain50, pressure pain threshold, pain tolerance, and pain ratings at 2 kg/cm2), algometry-derived pressure pain thresholds (mean of three trials) at each anatomical site, average cuff intensity ratings (mean of ratings at all stimulus levels during the ascending or random sequences), and average visual task unpleasantness and brightness intensity ratings (mean of ratings at all stimulus levels). Practice data were not analyzed. Overall pain intensity and unpleasantness NRS scores as well as stimulus response curves for each test were assessed during post hoc analyses. Data points displaying measurement artefacts, including device malfunction or user error, were set to missing. Single subject QST variables were analyzed using paired t-tests and/or nonparametric Wilcoxon signed-rank tests in SPSS or R.

CC(C)C(=O)N1CCC[C@]12CN([C@H](C(N)=O)[C@@H](C)O)C2=O [NYX-2925, (2S, 3R)-3-hydroxy-2-((R)-5-isobutyryl-1-oxo-2,5-diazaspiro[3.4]octan-2-yl)butanamide]
PROMISFM total fatigue profile score, change from baseline ([1]; NYX-2925 20 mg): reductions from baseline
PROMISFM Cognitive Impact Subdomain Score, changes from Week 2 (placebo) ([1]; NYX-2925 treatment at Weeks 4 and 6): not statistically significant
PROMISFM Fatigue Profile Total Score, mean change ([1]; Week 2 (placebo) to Week 4 (NYX-2925 20 mg), not statistically significant): −3.4
PROMISFM Experience Subdomain Score, mean change ([1]; Week 2 (placebo) to Week 6 (NYX-2925 200 mg), p=0.0036): −2.2
PROMISFM Fatigue Profile Total Score, mean change ([1]; Week 2 (placebo) to Week 6 (NYX-2925 200 mg), p=0.0049): −5.6
PROMISFM Social Impact Subdomain Score, mean change ([1]; Week 2 (placebo) to Week 6 (NYX-2925 200 mg), p=0.0329): −1.4
PROMISFM Motivational Impact Subdomain Score, mean change ([1]; Week 2 (placebo) to Week 6 (NYX-2925 200 mg), p=0.0490): −1.0
PROMISFM Fatigue Profile total score, reduction from baseline ([1]; week six, after four weeks of NYX-2925, scale 16 to 80, n=21): 5.4 point
MAST Pain50 threshold ([2]; NYX-2925 20 mg relative to baseline, p=0.079): marginal decrease in threshold
pain thresholds of the MAST test ([2]; NYX-2925 200 mg): not significantly altered
rating of pain unpleasantness evoked by MAST testing ([2]; NYX-2925 200 mg, baseline 50.00±24.24, p=0.038): 42.14±19.34
rating of overall pain intensity evoked by MAST testing ([2]; NYX-2925 200 mg, baseline 51.43±15.01, p=0.035): 44.76±12.19 NRS units
